In publication PMC5218480 (PLoS ONE, 2017):

System: MV-4-11 cells
Experiment: Gene expression microarray analysis (Affymetrix PrimeView) and GSEA
Format: cell-based, human
Parameters: RFU PODN (11730768_x_at) / Fold change /veh PODN (11730768_x_at) / RFU LINC00158 (11744669_a_at) / Fold change /veh LINC00158 (11744669_a_at) / RFU DUSP10 (11751237_a_at) / Fold change /veh DUSP10 (11751237_a_at) / RFU ID3 (11757404_x_at) / Fold change /veh ID3 (11757404_x_at) / RFU PLEKHG5 (11737974_s_at) / Fold change /veh PLEKHG5 (11737974_s_at) / RFU LRRC4B (11730491_at) / Fold change /veh LRRC4B (11730491_at) / RFU GIMAP4 (11747438_a_at) / Fold change /veh GIMAP4 (11747438_a_at) / RFU KRT8 (11758183_x_at) / Fold change /veh KRT8 (11758183_x_at) / RFU CNN1 (11734310_a_at) / Fold change /veh CNN1 (11734310_a_at) / RFU VPS37D (11726825_at) / Fold change /veh VPS37D (11726825_at) / RFU C10orf10 (11716522_x_at) / Fold change /veh C10orf10 (11716522_x_at) / RFU KIR2DL2 /// KIR2DL4 /// KIR2DL5A /// KIR2DL5B /// KIR2DS1 /// KIR2DS2 /// KIR2DS3 /// KIR2DS4 /// KIR3DL3 /// KIR3DL3 /// KIR3DS1 (11738374_at) / Fold change /veh KIR2DL2 /// KIR2DL4 /// KIR2DL5A /// KIR2DL5B /// KIR2DS1 /// KIR2DS2 /// KIR2DS3 /// KIR2DS4 /// KIR3DL3 /// KIR3DL3 /// KIR3DS1 (11738374_at) / RFU C1QL1 (11718748_at) / Fold change /veh C1QL1 (11718748_at) / RFU TMPRSS4 (11747572_a_at) / Fold change /veh TMPRSS4 (11747572_a_at) / RFU HAMP (11756126_x_at) / Fold change /veh HAMP (11756126_x_at) / RFU RNFT2 (11725882_a_at) / Fold change /veh RNFT2 (11725882_a_at) / RFU NR4A2 (11747474_a_at) / Fold change /veh NR4A2 (11747474_a_at) / RFU ABCC12 (11746883_a_at) / Fold change /veh ABCC12 (11746883_a_at) / RFU TMEM136 (11760407_x_at) / Fold change /veh TMEM136 (11760407_x_at) / RFU CLDN22 /// WWC2 (11732394_at) / Fold change /veh CLDN22 /// WWC2 (11732394_at) / RFU HLA-DPB1 (11760878_x_at) / Fold change /veh HLA-DPB1 (11760878_x_at) / RFU SPINT1 (11716480_a_at) / Fold change /veh SPINT1 (11716480_a_at) / RFU GAP43 (11754022_s_at) / Fold change /veh GAP43 (11754022_s_at) / RFU A4GNT (11735810_at) / Fold change /veh A4GNT (11735810_at) / RFU PRB3 (11715151_x_at) / Fold change /veh PRB3 (11715151_x_at) / RFU TUBB4B (11761932_at) / Fold change /veh TUBB4B (11761932_at) / RFU CAPN14 (11732068_a_at) / Fold change /veh CAPN14 (11732068_a_at) / RFU TMCC2 (11721928_a_at) / Fold change /veh TMCC2 (11721928_a_at) / RFU IRGQ (11745062_a_at) / Fold change /veh IRGQ (11745062_a_at) / RFU FAM174B (11720279_a_at) / Fold change /veh FAM174B (11720279_a_at) / RFU TMPRSS4 (11748680_a_at) / Fold change /veh TMPRSS4 (11748680_a_at) / RFU FAM212B (11763350_a_at) / Fold change /veh FAM212B (11763350_a_at) / RFU PLEKHG5 (11743358_a_at) / Fold change /veh PLEKHG5 (11743358_a_at) / RFU ZSCAN30 (11745921_a_at) / Fold change /veh ZSCAN30 (11745921_a_at) / RFU CMKLR1 (11741424_a_at) / Fold change /veh CMKLR1 (11741424_a_at) / RFU LOC101060620 /// MAPK8IP1 (11723275_at) / Fold change /veh LOC101060620 /// MAPK8IP1 (11723275_at) / RFU SPTSSB (11747773_x_at) / Fold change /veh SPTSSB (11747773_x_at) / RFU PRSS12 (11739890_at) / Fold change /veh PRSS12 (11739890_at) / RFU BIN1 (11741810_x_at) / Fold change /veh BIN1 (11741810_x_at) / RFU WNT11 (11732464_a_at) / Fold change /veh WNT11 (11732464_a_at) / RFU C10orf10 (11716521_a_at) / Fold change /veh C10orf10 (11716521_a_at) / RFU C5orf56 (11738089_at) / Fold change /veh C5orf56 (11738089_at) / RFU CYB561 (11721691_x_at) / Fold change /veh CYB561 (11721691_x_at) / RFU ANKRD19P (11752326_a_at) / Fold change /veh ANKRD19P (11752326_a_at) / RFU OR2T12 /// OR2T33 /// OR2T8 (11738714_s_at) / Fold change /veh OR2T12 /// OR2T33 /// OR2T8 (11738714_s_at) / RFU VCAN (11748164_a_at) / Fold change /veh VCAN (11748164_a_at) / RFU JSRP1 (11732532_at) / Fold change /veh JSRP1 (11732532_at) / RFU KRTAP10-11 (11738290_x_at) / Fold change /veh KRTAP10-11 (11738290_x_at) / RFU MYO3A (11730013_a_at) / Fold change /veh MYO3A (11730013_a_at) / RFU EBF3 (11725865_a_at) / Fold change /veh EBF3 (11725865_a_at) / RFU CAMK2N1 (11719241_x_at) / Fold change /veh CAMK2N1 (11719241_x_at) / RFU C5orf56 (11738088_a_at) / Fold change /veh C5orf56 (11738088_a_at) / RFU OLFML3 (11715873_a_at) / Fold change /veh OLFML3 (11715873_a_at) / RFU LOC100653217 /// NTM (11731650_a_at) / Fold change /veh LOC100653217 /// NTM (11731650_a_at) / RFU MAPK11 (11762145_a_at) / Fold change /veh MAPK11 (11762145_a_at) / RFU FIZ1 (11724087_x_at) / Fold change /veh FIZ1 (11724087_x_at) / RFU OASL (11726364_x_at) / Fold change /veh OASL (11726364_x_at) / RFU SOX15 (11748057_x_at) / Fold change /veh SOX15 (11748057_x_at) / RFU CD79A (11719716_a_at) / Fold change /veh CD79A (11719716_a_at) / RFU HIST1H1D (11736915_at) / Fold change /veh HIST1H1D (11736915_at) / RFU CASKIN2 (11723855_a_at) / Fold change /veh CASKIN2 (11723855_a_at) / RFU LOC730098 (11760151_x_at) / Fold change /veh LOC730098 (11760151_x_at) / RFU OR4N2 (11742367_at) / Fold change /veh OR4N2 (11742367_at) / RFU PRRT2 (11749266_a_at) / Fold change /veh PRRT2 (11749266_a_at) / RFU SNX32 (11753110_a_at) / Fold change /veh SNX32 (11753110_a_at) / RFU CDHR5 (11726645_a_at) / Fold change /veh CDHR5 (11726645_a_at) / RFU RCAN1 (11760418_a_at) / Fold change /veh RCAN1 (11760418_a_at) / RFU FAM167A (11723789_a_at) / Fold change /veh FAM167A (11723789_a_at) / RFU FAM26E (11764081_at) / Fold change /veh FAM26E (11764081_at) / RFU ISYNA1 (11749810_s_at) / Fold change /veh ISYNA1 (11749810_s_at) / RFU ACY1 (11761880_at) / Fold change /veh ACY1 (11761880_at) / RFU 11764098_at / Fold change /veh 11764098_at / RFU SAMD14 (11745864_x_at) / Fold change /veh SAMD14 (11745864_x_at) / RFU NPB (11741838_a_at) / Fold change /veh NPB (11741838_a_at) / RFU TMPRSS6 (11731388_a_at) / Fold change /veh TMPRSS6 (11731388_a_at) / RFU KRTAP10-2 (11738614_at) / Fold change /veh KRTAP10-2 (11738614_at) / RFU ARHGAP8 /// PRR5-ARHGAP8 (11727945_x_at) / Fold change /veh ARHGAP8 /// PRR5-ARHGAP8 (11727945_x_at) / RFU KRTAP5-7 /// NADSYN1 (11734609_at) / Fold change /veh KRTAP5-7 /// NADSYN1 (11734609_at) / RFU RASL12 (11751679_a_at) / Fold change /veh RASL12 (11751679_a_at) / RFU CDKN2B (11736163_a_at) / Fold change /veh CDKN2B (11736163_a_at) / RFU PRF1 (11729649_at) / Fold change /veh PRF1 (11729649_at) / RFU, ZNF638 /// ZNF638-IT1 / Fold change vs veh, ZNF638 /// ZNF638-IT1 / RFU, PANK3 / Fold change vs veh, PANK3 / RFU, SH3YL1 / Fold change vs veh, SH3YL1 / RFU, ZEB2 / Fold change vs veh, ZEB2 / RFU, NRIP1 / Fold change vs veh, NRIP1 / RFU, PTTG1IP / Fold change vs veh, PTTG1IP / RFU, CAPN2 / Fold change vs veh, CAPN2 / RFU, MED14 / Fold change vs veh, MED14 / RFU, SNORA58 / Fold change vs veh, SNORA58 / RFU, C1orf63 / Fold change vs veh, C1orf63 / RFU, LRRFIP1 / Fold change vs veh, LRRFIP1 / RFU, NDUFAF7 / Fold change vs veh, NDUFAF7 / RFU, SLC12A2 / Fold change vs veh, SLC12A2 / RFU, IBTK / Fold change vs veh, IBTK / RFU, ESF1 / Fold change vs veh, ESF1 / Fold change vs veh, TMEM50B / RFU, TAOK1 / Fold change vs veh, TAOK1 / RFU, ACBD3 / Fold change vs veh, ACBD3 / RFU, TMA16 / Fold change vs veh, TMA16 / RFU, RWDD3 / Fold change vs veh, RWDD3 / RFU, BCAT1 / Fold change vs veh, BCAT1 / RFU, EDEM3 / Fold change vs veh, EDEM3 / RFU, TMEM33 / Fold change vs veh, TMEM33 / RFU, WDR75 / Fold change vs veh, WDR75 / RFU, AHCTF1 / Fold change vs veh, AHCTF1 / RFU, TFRC / Fold change vs veh, TFRC / RFU, ZDHHC17 / Fold change vs veh, ZDHHC17 / RFU, NOM1 / Fold change vs veh, NOM1 / RFU, ARL8B / Fold change vs veh, ARL8B / RFU, ZBTB11 / Fold change vs veh, ZBTB11 / RFU, TAMM41 / Fold change vs veh, TAMM41 / RFU, KIAA1704 /// LOC100996395 / Fold change vs veh, KIAA1704 /// LOC100996395 / RFU, ING1 / Fold change vs veh, ING1 / RFU, TRMT61B / Fold change vs veh, TRMT61B / RFU, FUBP3 / Fold change vs veh, FUBP3 / RFU, TP53 / Fold change vs veh, TP53 / RFU, TNKS2 / Fold change vs veh, TNKS2 / RFU, ZFP14 / Fold change vs veh, ZFP14 / RFU, ACTR2 / Fold change vs veh, ACTR2 / RFU, PPP3R1 / Fold change vs veh, PPP3R1 / RFU, PIK3R1 / Fold change vs veh, PIK3R1 / RFU, HNRNPA1 / Fold change vs veh, HNRNPA1 / RFU, RNF170 / Fold change vs veh, RNF170 / RFU, ZNF28 / Fold change vs veh, ZNF28 / RFU, RNGTT / Fold change vs veh, RNGTT / RFU, OGT / Fold change vs veh, OGT / RFU, BRD1 / Fold change vs veh, BRD1 / RFU, MARS / Fold change vs veh, MARS / RFU, ZNF655 / Fold change vs veh, ZNF655 / RFU, FAHD1 / Fold change vs veh, FAHD1 / RFU, BDP1 / Fold change vs veh, BDP1 / RFU, LRRCC1 / Fold change vs veh, LRRCC1 / RFU, ARID1A / Fold change vs veh, ARID1A / RFU, ZNF146 / Fold change vs veh, ZNF146 / RFU, ZNF330 / Fold change vs veh, ZNF330 / RFU, GPN3 / Fold change vs veh, GPN3 / RFU, C9orf123 / Fold change vs veh, C9orf123 / RFU, N4BP2L2 / Fold change vs veh, N4BP2L2 / RFU, ARFIP1 / Fold change vs veh, ARFIP1 / RFU, FAM179B / Fold change vs veh, FAM179B / RFU, BCL10 / Fold change vs veh, BCL10 / RFU, UHRF1BP1L / Fold change vs veh, UHRF1BP1L / RFU, BET1 / Fold change vs veh, BET1 / RFU, CNOT2 / Fold change vs veh, CNOT2 / RFU, ZNF268 / Fold change vs veh, ZNF268 / Fold change vs veh, ZNF507 / RFU, DGCR2 / Fold change vs veh, DGCR2 / RFU, WDSUB1 / Fold change vs veh, WDSUB1 / Fold change vs veh, HSP90B1 /// MIR3652 / RFU, ADSS / Fold change vs veh, ADSS / RFU, GK / Fold change vs veh, GK / RFU, ZNF148 / Fold change vs veh, ZNF148 / RFU, TAF9 / Fold change vs veh, TAF9 / RFU, SLC1A5 / Fold change vs veh, SLC1A5 / RFU, SLMO2 / Fold change vs veh, SLMO2 / RFU, ABCC4 / Fold change vs veh, ABCC4 / RFU, LOC101060439 /// RAP1B / Fold change vs veh, LOC101060439 /// RAP1B / RFU, RFX7 / Fold change vs veh, RFX7 / RFU, GTPBP10 / Fold change vs veh, GTPBP10 / RFU, CNEP1R1 / Fold change vs veh, CNEP1R1 / RFU, BIVM-ERCC5 /// ERCC5 / Fold change vs veh, BIVM-ERCC5 /// ERCC5 / RFU, ILF3 / Fold change vs veh, ILF3 / RFU 11762660_at / Fold change /veh 11762660_at / RFU VCAN (11757783_s_at) / Fold change /veh VCAN (11757783_s_at) / RFU DDX43 (11728927_at) / Fold change /veh DDX43 (11728927_at) / RFU KRT8 (11758188_x_at) / Fold change /veh KRT8 (11758188_x_at) / RFU NKD1 (11759106_at) / Fold change /veh NKD1 (11759106_at) / RFU SRD5A1 (11742802_a_at) / Fold change /veh SRD5A1 (11742802_a_at) / RFU TPSAB1 /// TPSB2 (11721975_s_at) / Fold change /veh TPSAB1 /// TPSB2 (11721975_s_at) / RFU GSTM3 (11746129_a_at) / Fold change /veh GSTM3 (11746129_a_at) / RFU IL23R (11737362_x_at) / Fold change /veh IL23R (11737362_x_at) / RFU TMEM51 (11727254_a_at) / Fold change /veh TMEM51 (11727254_a_at) / RFU PIWIL2 (11732686_x_at) / Fold change /veh PIWIL2 (11732686_x_at) / RFU ORM1 (11744905_x_at) / Fold change /veh ORM1 (11744905_x_at) / RFU CCDC152 (11743942_at) / Fold change /veh CCDC152 (11743942_at) / RFU ECM1 (11717891_a_at) / Fold change /veh ECM1 (11717891_a_at) / RFU IL23R (11748794_a_at) / Fold change /veh IL23R (11748794_a_at) / RFU TNFAIP8L3 (11732012_x_at) / Fold change /veh TNFAIP8L3 (11732012_x_at) / RFU MBOAT4 (11741988_at) / Fold change /veh MBOAT4 (11741988_at) / RFU 11764193_at / Fold change /veh 11764193_at / RFU TMEM53 (11763286_at) / Fold change /veh TMEM53 (11763286_at) / RFU MAGEB2 (11727129_at) / Fold change /veh MAGEB2 (11727129_at) / RFU TMEM200A (11744735_a_at) / Fold change /veh TMEM200A (11744735_a_at) / RFU CCDC152 (11751479_a_at) / Fold change /veh CCDC152 (11751479_a_at) / RFU FAM211A (11726209_a_at) / Fold change /veh FAM211A (11726209_a_at) / RFU RGS16 (11746705_a_at) / Fold change /veh RGS16 (11746705_a_at) / RFU VCAN (11755009_s_at) / Fold change /veh VCAN (11755009_s_at) / RFU RHOB (11743442_s_at) / Fold change /veh RHOB (11743442_s_at) / RFU RGS16 (11720943_a_at) / Fold change /veh RGS16 (11720943_a_at) / RFU RGS16 (11720944_at) / Fold change /veh RGS16 (11720944_at) / RFU, VPS4B / Fold change vs veh, VPS4B / RFU, CREB1 / Fold change vs veh, CREB1 / RFU, DNAJC13 / Fold change vs veh, DNAJC13 / RFU, GNAQ / Fold change vs veh, GNAQ / RFU, CDK5R1 / Fold change vs veh, CDK5R1 / RFU, ZRANB3 / Fold change vs veh, ZRANB3 / RFU, CUL4A / Fold change vs veh, CUL4A / RFU, CCNY / Fold change vs veh, CCNY / RFU, UFL1 / Fold change vs veh, UFL1 / RFU, COG3 / Fold change vs veh, COG3 / RFU, DIAPH2 / Fold change vs veh, DIAPH2 / RFU, SKA2 / Fold change vs veh, SKA2 / RFU, AFF3 / Fold change vs veh, AFF3 / RFU, LMF1 / Fold change vs veh, LMF1 / RFU, IPO11 / Fold change vs veh, IPO11 / RFU, DFFB / Fold change vs veh, DFFB / RFU, FOXP1 / Fold change vs veh, FOXP1 / RFU, CARD8 / Fold change vs veh, CARD8 / RFU, STRN3 / Fold change vs veh, STRN3 / RFU, ADK / Fold change vs veh, ADK / RFU, RASSF2 / Fold change vs veh, RASSF2 / RFU, WIPF1 / Fold change vs veh, WIPF1 / RFU, LARP1B / Fold change vs veh, LARP1B / RFU, RASA1 / Fold change vs veh, RASA1 / RFU, RB1 / Fold change vs veh, RB1 / RFU, PPFIA1 / Fold change vs veh, PPFIA1 / RFU, MAT2A / Fold change vs veh, MAT2A / RFU, CCT5 / Fold change vs veh, CCT5 / RFU, WDR92 / Fold change vs veh, WDR92 / RFU, CUX1 / Fold change vs veh, CUX1 / RFU, TTC7A / Fold change vs veh, TTC7A / RFU, TMEM135 / Fold change vs veh, TMEM135 / RFU, DEPTOR / Fold change vs veh, DEPTOR / RFU, CPM / Fold change vs veh, CPM / RFU, DNAJB6 / Fold change vs veh, DNAJB6 / RFU, CACNA2D3 / Fold change vs veh, CACNA2D3 / RFU, DTX4 / Fold change vs veh, DTX4 / RFU, TFCP2 / Fold change vs veh, TFCP2 / RFU, GMCL1 /// GMCL1P1 / Fold change vs veh, GMCL1 /// GMCL1P1 / RFU, AEBP2 / Fold change vs veh, AEBP2 / RFU, SNHG1 /// SNORD22 /// SNORD25 /// SNORD26 /// SNORD27 /// SNORD28 /// SNORD29 /// SNORD31 / Fold change vs veh, SNHG1 /// SNORD22 /// SNORD25 /// SNORD26 /// SNORD27 /// SNORD28 /// SNORD29 /// SNORD31 / Fold change (Aza/veh), C12orf56 (ProbeSet 11735607_a_at) / Fold change (ACY-1035/veh), C12orf56 (ProbeSet 11735607_a_at) / Fold change (Aza/veh), FGFR1OP (ProbeSet 11751329_s_at) / Fold change (ACY-1035/veh), FGFR1OP (ProbeSet 11751329_s_at) / Fold change (Aza/veh), VPS36 (ProbeSet 11739960_a_at) / Fold change (ACY-1035/veh), VPS36 (ProbeSet 11739960_a_at) / RFU SYPL1 (11715823_x_at) / Fold change /veh SYPL1 (11715823_x_at) / RFU IGFBP7 (11715501_s_at) / Fold change /veh IGFBP7 (11715501_s_at) / RFU REEP3 (11722064_at) / Fold change /veh REEP3 (11722064_at) / RFU IGLL1 (11728026_x_at) / Fold change /veh IGLL1 (11728026_x_at): dose or concentration left out as unconfirmed
Conditions: ProbeSet 11731610_x_at; LIST B

## Nc1ccc(-c2cccs2)cc1NC(=O)c1ccc2c(c1)cc(C1CC1)n2CCN1CCOCC1 [ACY-1035]
  RFU, KIAA1704 /// LOC100996395: 79.91 RFU
